# Data from patent publication US10336984B2, “Method of molecular stress control” (CPSI Holdings LLC, priority 2010, dated 2019).
# “Also recorded” adds a separate entry of the source. Read-outs that look alike come from different tables or passages of the source.
# How the values were obtained:
# human hepatoma (C3A) = assay type: cell-based
# Source text: Samples were processed utilizing industry standard media (Roswell Park Memorial Institute, RPMI, media), cryo-protective agents and techniques. Cell survival response curves were plotted against varying concentrations of DMSO. Samples were frozen, thawed, cultured to allow for recovery, and then frozen again. This process was repeated 4 times (e.g. Freeze #1, Freeze #2, Freeze #3, Freeze #4) over experimental periods of several weeks (FIG. 8).
# As the intent of cell-guard is to reduce the negative effects of stress response of cells during normothermic culture processing, a series of studies using the freeze stress model were conducted examining the potential of stress response modulation during recovery culture. The studies examined the effect of modulating the apoptotic cell death mechanism, caspase cascade, as well as mitochondrial oxidative stress pathways. While numerous studies have looked at caspase and free radical formation inhibition during stresses including freezing, no studies have been reported looking to the effect of post-processing manipulation.
# As such, in FIG. 9, C3A samples were frozen using industry standard protocols in culture media+0%, 2%, 5%, and 10% DMSO. […]
# [1] = test system: RM-9 prostate cancer cells; experiment: Survival of RM-9 prostate cancer cells under cryotreatment (freezing) stress; assay type: cell-based, mouse; conditions: high doses
# Source text: Experiments have been completed and have expanded the scope of study to (1) include natural agents as part of the formulation and (2) target various stress pathways that may be activated in cells when they are bioprocessed. A variety of agents were used in addition to resveratrol. Of these, Vitamin D3 (i.e. calcitriol) at high doses protects the cells. […] Here, the stress regime included cryotreatment (freezing).
# rat primary hepatocytes = experiment: Hypothermic stress of rat primary hepatocytes with supplements; assay type: cell-based
# Method: (§1) Thermal Stress Regime: Cells were seeded into 96-well tissue culture plates (13,000 cells per well) and cultured for 24 hours into a monolayer. Culture media was decanted from experimental plates and replaced with 100 μl/well of the pre-cooled (4° C.) solution (complete growth media, HBSS with calcium and magnesium, ViaSpan, or OptiSol). Cultures were maintained at 4° C. for 18 hours to 9 days. Following cold storage, the media were decanted, replaced with 100 μl/well of room temperature (˜25° C.) complete culture media and then placed into standard culture conditions (37° C., 5% CO2) for recovery and assessment.
# (§2) Cell Viability Assay: To assess cell viability the metabolic activity assay, alamarBlue™ (Invitrogen) was utilized. Cell culture medium was decanted from the 96-well plates and 100 μl/well of the working alamarBlue™ solution (1:20 dilution in HBSS) was applied. Samples were then incubated for 60 minutes (±1 min) at 37° C. in the dark. The fluorescence levels were analyzed using a Tecan SPECTRAFluorPlus plate reader (TECAN, Austria GmbH). Relative fluorescence units were converted to a percentage compared to normothermic controls set at 100%. Readings were taken immediately following removal from hypothermic storage as well as 24 and 48 hours of recovery.
# In FIG. 19, the C3A cells were then substituted with rat primary hepatocytes. […]
# [2] = test system: primary human hepatocytes; experiment: Hypothermic stress of primary human hepatocytes with supplements; assay type: cell-based; conditions: hypothermic exposure at 4° C.
# Method: as §1, §2
# As such, in FIG. 20, primary human hepatocytes were then subjected to the same hypothermic stress paradigm. […]
# [3] = test system: C3A, human liver cancer cells; experiment: Hypoxic normothermic stress of C3A cells with supplements; assay type: cell-based; conditions: normothermic hypoxic stress regime
# Method: (§3) As an example, hepatocytes and C3A cells were placed under hypoxic conditions […] (normothermic incubation) in various commercial media with and without salubrinal or resveratrol. As with the cold thermal stress model, through the application of the current invention, preferential selection of either cell population was possible. The table in FIG. 10 summarizes the representative response of the various liver cells when placed into the two stress model conditions of thermal and hypoxic stress.
# (§4) Stress Regime 2—Hypoxia: Cells were held at 37° C. in an incubator with reduced levels of O2 for a 24 hour period. Two hypoxia models were utilized including increased CO2 levels providing for an 80% air: 20% CO2 ratio (versus standard 95% air: 5% CO2) as well as limited gas exchange using isolated environmental chambers. This procedure is designed to model various intervals of suboptimal culture conditions associated with cell processing and utilization.
# human hepatocytes = experiment: Hypoxic normothermic stress of hepatocytes with supplements; assay type: cell-based
# Method: as §3, §4
# [4] = test system: human lung fibroblasts (IMR-90); experiment: Cold exposure of human lung fibroblasts (IMR-90); assay type: cell-based
# Method: Preliminary studies into Unfolded Protein Response (UPR) pathways in cell death associated with cell stress has provided promising results. The UPR activator, tunicamycin, was applied in a thermal stress regime. In FIG. 5, human lung fibroblasts (IMR-90) were exposed to the cold (4° C.) in cell culture media, Viaspan (with and without tunicamycin), or ViaSpan with DMSO (carrier solution for tunicamycin). The DMSO control acts as a chemical chaperone. It was hypothesized that the addition of tunicamycin would result in an increased level of cell death following thermal stress.
# With this discovery, additional studies were conducted under a more stressful thermal regime designed to completely destroy all cells. […] In subsequent studies, tunicamycin was added subsequent to (rather than during) the cold stress period and compared to samples without addition. (See FIG. 5).
# FIG. 5 also depicts the viability of human lung fibroblasts (IMR-90) following two days of cold exposure with the addition of resveratrol (FR234). […] Yet, when tunicamycin is added during the recovery phase, this agent has the predicted lethal effect as described in the UPR literature.
# [5] = test system: human hepatoma C3A cell lines; experiment: C3A cells three days under optimal culture conditions with FR-234 (alamarBlue); assay type: cell-based; conditions: highest dose, 100 μg/mL; three days at 37° C., 5% CO2
# Method: FIG. 7 assesses the effect of the stress modulator, resveratrol (FR-234), exposure for three days under optimal culture conditions in human hepatoma C3A cell lines. In this graph, C3A cells were stored for three days under optimal culture conditions (37° C., 5% CO2) with a range of FR-234 doses. Cells were removed from storage after three days. Storage solutions were replaced with fresh culture media and viability was assessed at 1, 2, and 3 days post-storage using the metabolic activity indicator, alamarBlue.
# [6] = test system: human corneal endothelial cells (HCECs); experiment: Viability of HCECs after hypothermic storage (alamarBlue); assay type: cell-based; conditions: for viability at 10 µM / viability at 25 µM: Homo sapiens, HCEC; for viability at 10 µM: 10 μM salubrinal; for survival difference between ViaSpan with and without tunicamycin: 3 days at 4° C.
# Method: as §1, §2
# Chemical Additions: Modulation of the UPR was accomplished through the use of salubrinal (UPR-specific inhibitor), tunicamycin (UPR-specific inducer), resveratrol, AKT, Vitamin D3, caspase and MPTP inhibitors, among others. For instance, salubrinal (EMD Chemicals Inc., Gibbstown, N.J.) was added to media at working concentrations of 10 and 25 μM immediately before utilization. Tunicamycin (EMD Chemicals Inc.) was added to ViaSpan at a working concentration of 2 ug/mL immediately prior to use. All chemicals were diluted in water, ethanol, or DMSO prior to utilization and DMSO controls were conducted to ensure no effect of the dilution vehicle.
# [7] = test system: human corneal endothelial cells (HCECs); experiment: Cell death populations in HCECs after cold storage (flow cytometry, fluorescence microscopy); assay type: cell-based
# Method: Fluorescence Microscopy: Samples in 96-well plates were assessed for the presence of live, necrotic or apoptotic cells through triple labeling using Hoechst [81 μM], propidium iodide [9 μM], and Y oPro-1 [0.8 μM] (Molecular Probes, Eugene, Oreg.), respectively. Probes were added to samples and incubated in the dark for 20 minutes prior to imaging. To assess membrane integrity a dual label of calcein-AM [4 μM] and propidium iodide [9 μM] was utilized. Dual label probes were added to the samples and incubated for 30 minutes in the dark. All fluorescence images of labeled cells were obtained at 1, 4, 8 and 24 hours post-storage using a Zeiss Axiovert 200 fluorescent microscope with the AxioVision 4 software (Zeiss, Germany).
# Flow Cytometric Analysis: Counts of the unlabeled (live), necrotic (PI [1.5 μM]) and apoptotic (YOPRO-1 [0.1 μM]) labeled cells were obtained using microfluidic flow cytometry (Millipore). Probes were added to each sample and incubated in the dark for 20 minutes prior to cell collection. Counts of cells with polarized and depolarized mitochondria (JC-1 [7.7 μM]) were also obtained via microfluidic flow cytometry. Samples were labeled, collected and analyzed at 1, 4, 8 and 24 hours post-storage. Analysis was performed using the CytoSoft 5.2 software for the Guava PCA-96 system.
# Following the observation of differences in viability through the targeted modulation of the UPR, we next analyzed what effect this targeted approach has on the level and timing of cell death following hypothermic storage. HCECs were held at 4° C. for 24 hours in various solutions (CGM, HBSS, ViaSpan and OptiSol) with and without the addition of 25 μM salubrinal and assessed via microfluidic flow cytometry and fluorescence microscopy. Analysis of the apoptotic and necrotic populations was conducted to examine the effect UPR inhibition (25 μM salubrinal) had on cell death populations post-storage.
molecule,measurement,setting,value
"CC(=O)N[C@@H](CS)C(=O)O [NAC, N-Acetyl-Cysteine]",effect on cell division in extended post-stress culture,human hepatoma (C3A),no downstream negative effect on cell division
same,overall increase in sample recovery,"human hepatoma (C3A); 10% DMSO condition, supplement for first 24 hours post-processing",~20%
"C=C1/C(=C\C=C2/CCC[C@]3(C)[C@@H]([C@H](C)CCCC(C)(C)O)CC[C@@H]23)C[C@@H](O)C[C@@H]1O [Vitamin D3, calcitriol]",protection of cells under stress regime,[1],protects cells
Oc1ccc(C=Cc2cc(O)cc(O)c2)cc1 [resveratrol],protection of rat primary hepatocytes from hypothermic stress,rat primary hepatocytes,very effectively protected
same,protection of human hepatocytes from cold stress / cell viability,[2],able to completely protect; also recorded: extended
same,cell viability of C3A cells,[3],extended the cell viability for C3A cells
same,cell viability of hepatocytes,human hepatocytes; normothermic hypoxic stress regime,not for hepatocytes
same,effect of resveratrol on viability,[4]; two days of cold exposure,positive effects
same,effect on sample viability,[5],profound negative effect on sample viability
O=C(/C=C/c1ccccc1)NC(NC(=S)Nc1cccc2cccnc12)C(Cl)(Cl)Cl (centres unmarked) [salubrinal],viability over the 48 hour recovery period,"[6]; 24 hours at 4° C. in CGM, 25 μM salubrinal",retained
same,effect of salubrinal addition on viability,[6]; 24 hours at 4° C. in HBSS and ViaSpan,no differences
same,effect of salubrinal supplementation on viability,[6]; 48 hour storage in ViaSpan,no effect
same,viability,[6]; 48 hour storage in ViaSpan with salubrinal supplementation,76.7%
same,viability following 2 days of cold storage,"[6]; CGM and OptiSol, all samples with and without salubrinal",complete loss in viability
same,HCEC tolerance to stress,"[6]; FIG. 11, 18 hours of hypothermic storage",improves human corneal endothelial cell (HCEC) tolerance to stress
same,increase in cell survival,[6]; HCEC samples experiencing profound cold-induced failure,2 fold
same,viability at 10 µM,"[6]; 48 h, 2 days at 4° C. in HBSS, read-out: overall viability",26.9%
same,viability at 25 µM,"[6]; 48 h, 2 days at 4° C. in HBSS, 25 μM salubrinal, read-out: overall viability",37.8%
same,viability at 10 µM,"[6]; 24 hours at 4° C. in CGM, read-out: post-storage viability",23.1%
same,viability at 25 µM,"[6]; 24 hours at 4° C. in CGM, 25 μM salubrinal, read-out: post-storage viability",28%
same,viability at 10 µM,"[6]; 24 hours at 4° C. in OptiSol, read-out: post storage viability",52.3%
same,viability at 25 µM,"[6]; 24 hours at 4° C. in OptiSol, 25 μM salubrinal, read-out: post storage viability",53.9%
same,protection of rat primary hepatocytes from hypothermic stress,rat primary hepatocytes; hypothermic exposure at 4° C.,failed to protect
same,cell viability of hepatocytes,human hepatocytes,extended the cell viability of hepatocytes
same,total cell retention during hypothermic exposure,"[7]; 25 μM salubrinal, 24 hours at 4° C.",increased retention of total cells
same,"levels of apoptosis, inhibited vs uninhibited","[7]; 25 μM salubrinal, 24 hours at 4° C., each time point",elevated
same,"necrotic populations, UPR inhibited vs uninhibited","[7]; 25 μM salubrinal, 24 hours at 4° C., normalized to normothermic control",similar
same,membrane integrity and cellular attachment during recovery,"[7]; CGM storage 24 hours, calcein-AM and propidium iodide",marked increase
tunicamycin,cell survival immediately post-storage,"[6]; 3 days at 4° C. in ViaSpan, tunicamycin 2 ug/mL, 0 hours recovery",~60%
same,survival difference between ViaSpan with and without tunicamycin,[6]; 24 hours of recovery,29.0%
same,survival difference between ViaSpan with and without tunicamycin,[6]; 48 hours post-storage,53.9%
same,HCEC survival during the recovery period,[6]; tunicamycin added during cold exposure,significant decrease in HCEC survival
same,cell survival,[4]; post stress addition of tunicamycin (recovery phase),reduction in cell survival
same,thermal tolerance,[4]; tunicamycin in Viaspan during cold (4° C.) exposure,increase in thermal tolerance
same,effect of tunicamycin post-cold on samples exposed to resveratrol,[4]; two days of cold exposure,negating the positive effects of resveratrol
